Assay [1] has as its target T1, Alpha 2B receptor (Homo sapiens, UniProt P18089).
T1 construct: expressed in transfected cells; host or cells: NIH-3T3
T1 sequence (P18089 1-450): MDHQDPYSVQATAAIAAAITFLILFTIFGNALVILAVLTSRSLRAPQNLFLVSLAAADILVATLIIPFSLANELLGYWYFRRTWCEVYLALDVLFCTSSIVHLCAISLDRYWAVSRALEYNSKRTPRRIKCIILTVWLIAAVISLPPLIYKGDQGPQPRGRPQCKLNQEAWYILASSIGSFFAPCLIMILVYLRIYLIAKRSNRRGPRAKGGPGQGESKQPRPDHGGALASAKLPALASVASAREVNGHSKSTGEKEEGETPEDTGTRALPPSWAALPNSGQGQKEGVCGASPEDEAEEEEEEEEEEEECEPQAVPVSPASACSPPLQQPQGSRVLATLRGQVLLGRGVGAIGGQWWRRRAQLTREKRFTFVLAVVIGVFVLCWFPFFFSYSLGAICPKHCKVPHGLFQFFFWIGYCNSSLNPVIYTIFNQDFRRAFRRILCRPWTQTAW
The experiment in a line: RSAT (Receptor Selection and Amplification Technology) assay, alpha 2B. Particulars: for EC50: NIH-3T3 cells cotransfected with receptor and Gq/i5, na = not active; for RSAT (rel eff) Alpha 2B, intrinsic activity: ratio of maximal effect of the drug to maximal effect of standard full agonist brimonidine. The class given is cell-based. As to the method:
(§1) 76, pp. 308-311 (incorporated herein by reference) and is also described below.
(§2) The RSAT assay measures a receptor-mediated loss of contact inhibition that results in selective proliferation of receptor-containing cells in a mixed population of confluent cells. The increase in cell number is assessed with an appropriate transfected marker gene such as β-galactosidase, the activity of which can be easily measured in a 96-well format. Receptors that activate the G protein, Gq, elicit this response. Alpha 2 receptors, which normally couple to Gi, activate the RSAT response when coexpressed with a hybrid Gq protein that has a Gi receptor recognition domain, called Gq/i5.
(§3) NIH-3T3 cells are plated at a density of 2×10^6 cells in 15 cm dishes and maintained in Dulbecco's modified Eagle's medium supplemented with 10% calf serum. One day later, cells are cotransfected by calcium phosphate precipitation with mammalian expression plasmids encoding p-SV-β-galactosidase (5-10 μg), receptor (1-2 μg) and G protein (1-2 μg). 40 μg salmon sperm DNA may also be included in the transfection mixture. Fresh media is added on the following day and 1-2 days later, cells are harvested and frozen in 50 assay aliquots. Cells are thawed and 100 μl added to 100 μL aliquots of various concentrations of drugs in triplicate in 96-well dishes. Incubations continue 72-96 hr at 37° C. After washing with phosphate-buffered saline, β-galactosidase enzyme activity is determined by adding 200 μL of the chromogenic substrate (consisting of 3.5 mM o-nitrophenyl-β-D-galactopyranoside and 0.5% nonidet P-40 in phosphate buffered saline), incubating overnight at 30° C. and measuring optical density at 420 nm. The absorbance is a measure of enzyme activity, which depends on cell number and reflects a receptor-mediated cell proliferation. The efficacy or intrinsic activity is calculated as a ratio of the maximal effect of the drug to the maximal effect of a standard full agonist for each receptor subtype. Brimonidine, the chemical structure of which is shown below, is used as the standard agonist for the alpha 2B and alpha 2C receptors.

Assay [2] has as its target T2, Alpha 2C receptor (Homo sapiens, UniProt P18825).
T2 construct: expressed in transfected cells; host or cells: NIH-3T3
T2 sequence (P18825 1-462): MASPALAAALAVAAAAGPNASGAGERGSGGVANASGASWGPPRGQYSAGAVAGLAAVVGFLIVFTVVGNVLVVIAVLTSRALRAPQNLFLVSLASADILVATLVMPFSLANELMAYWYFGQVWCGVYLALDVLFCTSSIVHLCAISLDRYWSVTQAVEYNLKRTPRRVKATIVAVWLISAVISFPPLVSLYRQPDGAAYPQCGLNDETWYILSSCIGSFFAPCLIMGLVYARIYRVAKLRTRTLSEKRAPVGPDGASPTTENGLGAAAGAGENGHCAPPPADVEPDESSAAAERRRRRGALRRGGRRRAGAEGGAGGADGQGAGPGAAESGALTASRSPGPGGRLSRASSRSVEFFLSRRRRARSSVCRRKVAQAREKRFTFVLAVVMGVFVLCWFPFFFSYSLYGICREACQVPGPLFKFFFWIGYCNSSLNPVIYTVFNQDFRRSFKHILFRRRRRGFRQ
Briefly: RSAT (Receptor Selection and Amplification Technology) assay, alpha 2C. The assay is classed as cell-based. Particulars: for EC50: NIH-3T3 cells cotransfected with receptor and Gq/i5, na = not active; for RSAT (rel eff) Alpha 2C, intrinsic activity: ratio of maximal effect of the drug to maximal effect of standard full agonist brimonidine. As to the method:
as §1, §2, §3

From patent publication US20090239918A1, “SELECTIVE SUBTYPE ALPHA 2 ADRENERGIC AGENTS AND METHODS FOR USE THEREOF” (ALLERGAN, INC., priority 2008, published 2009) come the findings set out here.

As to `c1ccc(CC(N=C2NCCN2)c2ccccc2)cc1` (centres unmarked), in assay [1], the EC50 was found to be 6.38 nM and the “RSAT (rel eff) Alpha 2B, intrinsic activity” value (shortened to “RSAT (rel eff) Alpha 2B”) was determined as 0.77.
With `c1ccc(CC(/N=C2\NCCO2)c2ccccc2)cc1` (centres unmarked), in assay [2], the EC50 came out at 3.36 nM and the “RSAT (rel eff) Alpha 2C, intrinsic activity” value (“RSAT (rel eff) Alpha 2C” below) came out at 0.45. Moreover, in assay [1], the midpoint of the response, the EC50, lay at 3.69 nM and the “RSAT (rel eff) Alpha 2B” value is 0.95.
Turning to `c1ccc(CC(/N=C2/NCCS2)c2ccccc2)cc1` (centres unmarked), in assay [2], the EC50 is 9.63 nM and the “RSAT (rel eff) Alpha 2C” value turned out to be 0.42. In assay [1], the EC50 was determined as 5.43 nM and the “RSAT (rel eff) Alpha 2B” value was determined as 0.90.
For `Cc1cccc(CC(/N=C2\NCCO2)c2cccc(Cl)c2)c1` (centres unmarked) the same measures were 8.56 nM, 0.63, 2.79 nM and 0.92.
The like results for `Cc1cccc(CC(/N=C2/NCCS2)c2cccc(Cl)c2)c1` (centres unmarked) were, in that order, 4.33 nM, 0.44, 2.96 nM and 0.82.
The like results for `Clc1cccc(C(Cc2ccccc2)/N=C2\NCCO2)c1` (centres unmarked) were, in that order, 4.39 nM, 0.37, 7.14 nM and 0.83.
`Clc1cccc(C(Cc2ccccc2)/N=C2/NCCS2)c1` (centres unmarked): in assay [2], the concentration for a half-maximal effect (EC50) came out at 4.71 nM and the “RSAT (rel eff) Alpha 2C” value is on record as 0.33. Besides, in assay [1], a half-maximal response (EC50) required 6.49 nM and the “RSAT (rel eff) Alpha 2B” value stood at 0.89.
Turning to `Clc1cccc(C(Cc2ccccc2)N=C2NCCN2)c1` (centres unmarked), in assay [1], a half-maximal effect (EC50) was put at 5.91 nM and the “RSAT (rel eff) Alpha 2B” value turned out to be 0.76.
Take `Cc1cccc(CC(N=C2NCCN2)c2cccc(Cl)c2)c1` (centres unmarked): in assay [2], a half-maximal effect (EC50) was put at 3.7 nM and the “RSAT (rel eff) Alpha 2C” value is 0.38. Also, in assay [1], a half-maximal effect (EC50) was put at 1.52 nM and the “RSAT (rel eff) Alpha 2B” value is 0.81.
With `Cc1ccc(CC(/N=C2/NCCS2)c2cccc(Cl)c2)cc1` (centres unmarked), in assay [2], the EC50 was found to be 11.8 nM and the “RSAT (rel eff) Alpha 2C” value worked out at 0.45. For the same molecule, in assay [1], the EC50 turned out to be 7.32 nM and the “RSAT (rel eff) Alpha 2B” value was 0.76.
With `Cc1ccc(CC(N=C2NCCN2)c2cccc(Cl)c2)cc1` (centres unmarked), in assay [1], the EC50 amounted to 5.61 nM and the “RSAT (rel eff) Alpha 2B” value was 0.69.
The like results for `Cc1ccccc1CC(N=C1NCCN1)c1cccc(Cl)c1` (centres unmarked) were, in that order, 1.92 nM and 0.87.
`Cc1cccc(C(Cc2ccccc2)N=C2NCCN2)c1C` (centres unmarked): in assay [1], the EC50 was found to be 2.54 nM and the “RSAT (rel eff) Alpha 2B” value was 0.83.
Take `Cc1ccc(CC(/N=C2\NCCO2)c2cccc(Cl)c2)cc1` (centres unmarked): in assay [2], the EC50 was determined as 6.78 nM and the “RSAT (rel eff) Alpha 2C” value is given as 0.46. For the same molecule, in assay [1], it took 5.11 nM to reach a half-maximal effect (EC50) and the “RSAT (rel eff) Alpha 2B” value came out at 0.74.
In the case of `Cc1ccccc1CC(/N=C1/NCCS1)c1cccc(Cl)c1` (centres unmarked), in assay [2], the EC50 is 8.34 nM and the “RSAT (rel eff) Alpha 2C” value stood at 0.46. In addition, in assay [1], the midpoint of the response, the EC50, lay at 3.29 nM and the “RSAT (rel eff) Alpha 2B” value was 0.89.
In the case of `Cc1cccc(C(Cc2ccccc2)/N=C2/NCCS2)c1C` (centres unmarked), in assay [2], the EC50 was determined as 9.48 nM and the “RSAT (rel eff) Alpha 2C” value is recorded as 0.45. In assay [1], the EC50 stood at 3.69 nM and the “RSAT (rel eff) Alpha 2B” value was determined as 0.89.
As to `Cc1ccccc1CC(/N=C1\NCCO1)c1cccc(Cl)c1` (centres unmarked), in assay [2], the midpoint of the response, the EC50, lay at 1.46 nM and the “RSAT (rel eff) Alpha 2C” value is on record as 0.39. Moreover, in assay [1], the concentration for a half-maximal effect (EC50) was 1.52 nM and the “RSAT (rel eff) Alpha 2B” value came to 0.87.
The like results for `Fc1c(Cl)cccc1C(Cc1ccccc1)N=C1NCCN1` (centres unmarked) were, in that order, 1.97 nM, 0.39, 3.57 nM and 0.85.
Turning to `Cc1c(Cl)cccc1C(Cc1ccccc1)N=C1NCCN1` (centres unmarked), in assay [1], the EC50 came to 7.64 nM and the “RSAT (rel eff) Alpha 2B” value is listed as 0.77.
Consider `Cc1cccc(C(Cc2ccccc2)/N=C2\NCCO2)c1C` (centres unmarked), for which, in assay [2], the midpoint of the response, the EC50, lay at 13.4 nM and the “RSAT (rel eff) Alpha 2C” value is reported as 0.39. Moreover, in assay [1], the EC50 was determined as 3.48 nM and the “RSAT (rel eff) Alpha 2B” value came out at 0.89.
The like results for `Fc1c(Cl)cccc1C(Cc1ccccc1)/N=C1\NCCO1` (centres unmarked) were, in that order, 2.57 nM, 0.32, 2.79 nM and 0.93.
The like results for `Fc1c(Cl)cccc1C(Cc1ccccc1)/N=C1/NCCS1` (centres unmarked) were, in that order, 6.48 nM, 0.38, 4.54 nM and 0.89.
Consider `Clc1cccc(C(Cc2ccccc2)N=C2NCCN2)c1Cl` (centres unmarked), for which, in assay [1], the EC50 came to 3.09 nM and the “RSAT (rel eff) Alpha 2B” value was 0.89.
For `Fc1ccc(CC(N=C2NCCN2)c2cccc(Cl)c2Cl)cc1` (centres unmarked) the same measures were 3.73 nM and 0.89.
With `Clc1cccc(C(Cc2ccccc2Br)N=C2NCCN2)c1Cl` (centres unmarked), in assay [1], the EC50 worked out at 3.24 nM and the “RSAT (rel eff) Alpha 2B” value is reported as 0.89.
The like results for `COc1cccc(CC(N=C2NCCN2)c2cccc(Cl)c2Cl)c1` (centres unmarked) were, in that order, 1.91 nM and 1.00.
With `Cc1c(F)cccc1CC(N=C1NCCN1)c1cccc(Cl)c1Cl` (centres unmarked), in assay [2], it took 3.54 nM to reach a half-maximal effect (EC50) and the “RSAT (rel eff) Alpha 2C” value amounted to 0.31. Besides, in assay [1], the EC50 came out at 8.04 nM and the “RSAT (rel eff) Alpha 2B” value turned out to be 0.95.
For `Clc1ccc(Cl)c(CC(N=C2NCCN2)c2cccc(Cl)c2Cl)c1` (centres unmarked) the same measures were 3.92 nM, 0.39, 1.02 nM and 0.98.
Regarding `Fc1cccc(Cl)c1CC(N=C1NCCN1)c1cccc(Cl)c1Cl` (centres unmarked), in assay [1], the EC50 came to 12.5 nM and the “RSAT (rel eff) Alpha 2B” value came to 0.89.
As to `Clc1cc(Cl)cc(CC(N=C2NCCN2)c2cccc(Cl)c2Cl)c1` (centres unmarked), in assay [2], the midpoint of the response, the EC50, lay at 5.74 nM and the “RSAT (rel eff) Alpha 2C” value is 0.42. Also, in assay [1], the concentration for a half-maximal effect (EC50) was 0.9 nM and the “RSAT (rel eff) Alpha 2B” value is 1.20.
Regarding `Clc1ccc(CC(N=C2NCCN2)c2cccc(Cl)c2Cl)c(Cl)c1` (centres unmarked), in assay [1], it took 2.79 nM to reach a half-maximal effect (EC50) and the “RSAT (rel eff) Alpha 2B” value worked out at 1.17.
For `Clc1ccc(CC(NC2=NCCN2)c2cccc(Cl)c2Cl)cc1Cl` (centres unmarked) the same measures were 10.8 nM and 0.96.
For `Oc1cccc(CC(NC2=NCCN2)c2cccc(Cl)c2Cl)c1` (centres unmarked) the same measures were 1.55 nM and 1.05.
In the case of `COc1ccccc1CC(NC1=NCCN1)c1cccc(Cl)c1` (centres unmarked), in assay [1], the EC50 turned out to be 0.61 nM and the “RSAT (rel eff) Alpha 2B” value came out at 0.89.
Regarding `COc1ccccc1CC(NC1=NCCO1)c1cccc(Cl)c1` (centres unmarked), in assay [1], a half-maximal response (EC50) required 0.63 nM and the “RSAT (rel eff) Alpha 2B” value was 0.91.
`Clc1cccc(C(Cc2ccccc2Br)NC2=NCCO2)c1` (centres unmarked): in assay [1], the EC50 is 0.86 nM and the “RSAT (rel eff) Alpha 2B” value is given as 0.92.
